One test deals with Coagulation factor IX (Homo sapiens, UniProt P00740). The test can be described thus: Binding affinity towards human factor IXa.
The target of another test is Coagulation factor X (Homo sapiens, UniProt P00742). The test can be described thus: Binding affinity towards human factor Xa.

SMILES strings stand for the structures.

Coagulation factor IX, sequence (P00740 47-191 limits assumed): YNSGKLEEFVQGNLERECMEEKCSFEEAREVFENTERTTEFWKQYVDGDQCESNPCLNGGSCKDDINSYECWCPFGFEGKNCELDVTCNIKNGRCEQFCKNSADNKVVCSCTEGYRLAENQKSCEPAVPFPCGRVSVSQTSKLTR
Coagulation factor IX, sequence (P00740 227-461 limits assumed): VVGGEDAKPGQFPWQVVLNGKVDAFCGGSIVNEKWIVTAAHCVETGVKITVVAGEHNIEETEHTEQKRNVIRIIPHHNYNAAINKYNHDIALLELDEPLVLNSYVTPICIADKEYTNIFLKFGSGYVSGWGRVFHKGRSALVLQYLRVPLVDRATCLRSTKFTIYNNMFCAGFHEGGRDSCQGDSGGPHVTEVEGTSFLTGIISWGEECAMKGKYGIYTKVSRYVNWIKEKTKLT
Coagulation factor X, sequence (P00742 41-179 limits assumed): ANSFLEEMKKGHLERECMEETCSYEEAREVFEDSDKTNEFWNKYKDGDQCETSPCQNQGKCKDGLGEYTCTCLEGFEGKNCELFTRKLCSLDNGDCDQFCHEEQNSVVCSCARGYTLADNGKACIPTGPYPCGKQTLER
Coagulation factor X, sequence (P00742 235-488 limits assumed): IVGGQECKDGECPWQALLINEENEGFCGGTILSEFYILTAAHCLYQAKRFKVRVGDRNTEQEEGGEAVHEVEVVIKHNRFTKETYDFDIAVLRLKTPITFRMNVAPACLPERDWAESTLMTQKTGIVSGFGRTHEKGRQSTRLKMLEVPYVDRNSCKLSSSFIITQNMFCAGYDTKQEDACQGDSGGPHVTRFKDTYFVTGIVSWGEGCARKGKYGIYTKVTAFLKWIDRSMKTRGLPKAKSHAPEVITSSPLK

For `N=C(N)c1ccc2[nH]cc(CC(=O)Nc3ccc(-c4ccccc4S(N)(=O)=O)cc3)c2c1`, the Ki (usually the dissociation constant of the complex between target and ligand, obtained from inhibition or displacement) on Coagulation factor IX was determined as 6700 nM; at Coagulation factor X it was 3.2 nM.

Turning to `N=C(N)c1ccc2[nH]cc(C(CC(=O)Nc3ccc(-n4cnc5ccccc54)cc3)Cc3ccccc3)c2c1` (stereo not given), the Ki is 250 nM on Coagulation factor IX and 36 nM at Coagulation factor X.

On to `CC(C(=O)Nc1ccc(-n2cnc3ccccc32)cc1)c1c[nH]c2ccc(C(=N)N)cc12` (stereo not given), for which the Ki at Coagulation factor IX worked out at 480 nM; at Coagulation factor X it was 3 nM.

With `N=C(N)c1ccc2[nH]cc(C(Cc3ccccc3)C(=O)NCc3ccc(-n4cnc5ccccc54)cc3)c2c1` (stereo not given), the Ki worked out at 310 nM on Coagulation factor IX and 72 nM at Coagulation factor X.

Regarding `Cn1cc(C(Cc2ccccc2)C(=O)Nc2ccc(-n3cnc4ccccc43)cc2F)c2cc(C(=N)N)ccc21` (stereo not given), the Ki worked out at 360 nM at Coagulation factor IX and 160 nM at Coagulation factor X.

For `N=C(N)c1ccc2[nH]cc(C(CCc3ccccc3)C(=O)Nc3ccc(-n4cnc5ccccc54)cc3F)c2c1` (stereo not given), the figures for the Ki at Coagulation factor IX and at Coagulation factor X were 240 nM and 6.1 nM, respectively.

Consider `N=C(N)c1ccc2[nH]cc(C(Cc3ccc4ccccc4c3)C(=O)Nc3ccc(-n4cnc5ccccc54)cc3F)c2c1` (stereo not given), for which the Ki at Coagulation factor IX came out at 98 nM; at Coagulation factor X it was 28 nM.

As to `N=C(N)c1ccc2[nH]cc(C(Cc3ccc(N)cc3)C(=O)Nc3ccc(-n4cnc5ccccc54)cc3)c2c1` (stereo not given), the figures for the Ki at Coagulation factor IX and at Coagulation factor X were 75 nM and 4 nM, respectively.

As for `N=C(N)c1ccc2[nH]cc(C(Cc3ccccc3)C(=O)Nc3ccc(-n4cnc(-c5ccccc5)c4)cc3)c2c1` (stereo not given), the Ki at Coagulation factor IX came to 270 nM; on Coagulation factor X, 79 nM.

For the compound `N=C(N)c1ccc2[nH]cc([C@H](Cc3ccccc3)C(=O)Nc3ccc(-n4cnc5ccccc54)cc3F)c2c1`, the inhibition constant Ki on Coagulation factor IX was determined as 820 nM; at Coagulation factor X it was 26 nM.

For the compound `N=C(N)c1ccc2[nH]cc([C@@H](Cc3ccccc3)C(=O)Nc3ccc(-n4cnc5ccccc54)cc3F)c2c1`, the Ki at Coagulation factor IX is 19 nM; at Coagulation factor X, 1.3 nM.

As for `N=C(N)c1ccc2[nH]cc(C(Cc3ccccc3)C(=O)NCc3ccc(C(=O)Nc4nc5ccccc5[nH]4)cc3)c2c1` (stereo not given), the Ki at Coagulation factor IX is 930 nM; on Coagulation factor X it was 810 nM.

`N=C(N)c1ccc2[nH]cc(C(Cc3ccccc3)C(=O)Nc3ccc(-c4ccccc4S(N)(=O)=O)cc3)c2c1` (stereo not given): the Ki is 660 nM on Coagulation factor IX and 0.63 nM on Coagulation factor X.

For the compound `N=C(N)c1ccc2[nH]cc(CC(Cc3ccccc3)C(=O)Nc3ccc(-n4cnc5ccccc54)cc3)c2c1` (stereo not given), the Ki is 130 nM on Coagulation factor IX and 45 nM on Coagulation factor X.

Take `CS(=O)(=O)c1ccc2nc(NC(=O)c3ccc(CNC(=O)C(Cc4ccccc4)c4c[nH]c5ccc(C(=N)N)cc45)cc3)[nH]c2c1` (stereo not given): the Ki is 660 nM on Coagulation factor IX and 1100 nM on Coagulation factor X.

For the compound `N=C(N)c1ccc2[nH]cc(C(CC3CC3)C(=O)Nc3ccc(-n4cnc5ccccc54)cc3)c2c1` (stereo not given), the Ki on Coagulation factor IX turned out to be 3800 nM; at Coagulation factor X, 14 nM.

With `N=C(N)c1ccc2[nH]cc(C(Cc3ccc(NC(=O)c4ccccc4)cc3)C(=O)Nc3ccc(-n4cnc5ccccc54)cc3)c2c1` (stereo not given), the Ki at Coagulation factor IX was 270 nM; at Coagulation factor X, 18 nM.

As to `CCC(C(=O)Nc1ccc(-n2cnc3ccccc32)cc1)c1c[nH]c2ccc(C(=N)N)cc12` (stereo not given), the results for the Ki at Coagulation factor IX and at Coagulation factor X were 160 nM and 2.8 nM, respectively.

Consider `N=C(N)c1ccc2[nH]cc(C(Cc3cccc(C(=O)O)c3)C(=O)Nc3ccc(-n4cnc5ccccc54)cc3F)c2c1` (stereo not given), for which the Ki at Coagulation factor IX is 59 nM; at Coagulation factor X it was 1.8 nM.

Turning to `CC(C)(C(=O)Nc1ccc(-n2cnc3ccccc32)cc1)c1c[nH]c2ccc(C(=N)N)cc12`, the Ki came out at 750 nM on Coagulation factor IX and 2.2 nM on Coagulation factor X.

Regarding `N=C(N)c1ccc2[nH]cc(C(Cc3ccc(NS(=O)(=O)c4ccccc4)cc3)C(=O)Nc3ccc(-n4cnc5ccccc54)cc3)c2c1` (stereo not given), the Ki was found to be 130 nM at Coagulation factor IX and 19 nM at Coagulation factor X.

As to `N=C(N)c1ccc2[nH]cc(C(Cc3cccnc3)C(=O)Nc3ccc(-n4cnc5ccccc54)cc3)c2c1` (stereo not given), the Ki is 1200 nM on Coagulation factor IX and 7 nM on Coagulation factor X.

For the compound `N=C(N)c1ccc2[nH]cc(C(Cc3ccccc3)C(=O)NCc3cccc(C(=O)Nc4nc5ccccc5[nH]4)c3)c2c1` (stereo not given), the results for the Ki on Coagulation factor IX and on Coagulation factor X were 1900 nM and 2600 nM, respectively.

For `N=C(N)c1ccc2ccn(C(Cc3ccccc3)C(=O)Nc3ccc(-n4cnc5ccccc54)cc3F)c2c1` (stereo not given), the Ki came to 300 nM on Coagulation factor IX and 5.6 nM on Coagulation factor X.

Turning to `N=C(N)c1ccc2[nH]cc(C(Cc3ccccc3)C(=O)Nc3ccc(-n4cnc5ccccc54)cc3F)c2c1` (racemic), the Ki at Coagulation factor IX came out at 63 nM; at Coagulation factor X, 2.5 nM.

The values are drawn from ChEMBL document CHEMBL1137916, “5-Amidinoindoles as dual inhibitors of coagulation factors IXa and Xa” (Bioorg Med Chem Lett, 2004).
